# Key:
# [1] = target: Cyclin-dependent kinase 2 (Homo sapiens, UniProt P24941)
# Description: Inhibitory activity against human cyclin-dependent kinase 2 (CDK2)
# [2] = target: Cyclin-dependent kinase 1 (Homo sapiens, UniProt P06493)
# Cyclin-dependent kinase 1, sequence (P06493 whole entry): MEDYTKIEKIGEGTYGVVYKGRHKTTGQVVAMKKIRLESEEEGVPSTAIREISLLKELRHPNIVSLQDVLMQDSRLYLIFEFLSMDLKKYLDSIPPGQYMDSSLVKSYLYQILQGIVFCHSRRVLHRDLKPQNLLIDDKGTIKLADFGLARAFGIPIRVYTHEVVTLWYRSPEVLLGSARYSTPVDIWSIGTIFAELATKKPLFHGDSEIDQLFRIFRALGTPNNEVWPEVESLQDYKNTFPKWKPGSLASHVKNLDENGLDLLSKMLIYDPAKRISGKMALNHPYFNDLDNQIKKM
# Description: Inhibitory activity against human cyclin-dependent kinase 1 (CDK1)
Structure (SMILES),IC50 [1],IC50 [2]
NS(=O)(=O)c1ccc(N/N=C2\C(=O)Nc3ccc(-c4cnco4)cc32)cc1 [GW276655X],2.3 nM,10 nM
CC(C)(CO)CNC(=O)c1ccc2c(c1)C(=NNc1ccc(S(N)(=O)=O)cc1)C(=O)N2 [GW301784X],6.8 nM,60 nM
NS(=O)(=O)c1ccc(N/N=C2\C(=O)Nc3ccc4ncsc4c32)cc1,7.1 nM,43 nM
NS(=O)(=O)c1ccc(NN=C2C(=O)Nc3ccc(C(=O)NCc4ccncc4)cc32)cc1 [GW300657X],8.9 nM,74 nM
NC(=O)c1ccc2c(c1)C(=NNc1ccc(S(N)(=O)=O)cc1)C(=O)N2,4.5 nM,2.8 nM
CCOc1cccc2c1C(=NNc1ccc(S(N)(=O)=O)cc1)C(=O)N2,93 nM,550 nM
C/C(Nc1ccc(S(N)(=O)=O)cc1)=C1/C(=O)Nc2ccc(Cl)cc21,22 nM,220 nM
NS(=O)(=O)c1ccc(NN=C2C(=O)Nc3ccc(C(=O)NCc4cccnc4)cc32)cc1,2.1 nM,51 nM
CC(C)Oc1cccc2c1C(=NNc1ccc(S(N)(=O)=O)cc1)C(=O)N2,3.4 nM,41 nM
NS(=O)(=O)c1ccc(NN=C2C(=O)Nc3ccc4[nH]nc(Cl)c4c32)cc1,2.2 nM,83 nM
O=C1Nc2ccc3ncsc3c2/C1=C/Nc1ccc(S(=O)(=O)NCCO)cc1,4.7 nM,41 nM
CN(C)CCNS(=O)(=O)c1ccc(N/C=C2\C(=O)Nc3ccccc32)cc1,1000 nM,5500 nM
COCCOCCOCCOCCN(C)S(=O)(=O)c1ccc(N/C=C2\C(=O)Nc3ccc4ncsc4c32)cc1,1 nM,45 nM
CN(c1ccccn1)S(=O)(=O)c1ccc(N/C=C2\C(=O)Nc3ccc4ncsc4c32)cc1,5.6 nM,64 nM
NS(=O)(=O)c1ccc(N/C=C2\C(=O)Nc3ccc4ncccc4c32)cc1,1.5 nM,15 nM
CS(=O)(=O)Cc1ccc(N/C=C2\C(=O)Nc3ccc4ncsc4c32)cc1,50 nM,1200 nM
NS(=O)(=O)c1ccc(N/N=C2\C(=O)Nc3ccccc32)cc1,120 nM,1300 nM
NS(=O)(=O)c1ccc(NC=C2C(=O)Nc3ccc4ncsc4c32)cc1 [GW589933X],2.8 nM,29 nM
NS(=O)(=O)c1ccc(NN=C2C(=O)Nc3cc(Oc4ccccc4)ccc32)cc1,> 10000 nM,> 10000 nM
NS(=O)(=O)Cc1ccc(N/C=C2\C(=O)Nc3ccc4ncsc4c32)cc1,7.5 nM,100 nM
Nc1ccc2c(c1)C(=NNc1ccc(S(N)(=O)=O)cc1)C(=O)N2,74 nM,1400 nM
CNS(=O)(=O)c1ccc(N/C=C2\C(=O)Nc3ccc4ncsc4c32)cc1,5.6 nM,64 nM
NS(=O)(=O)c1ccc(N/C=C2\C(=O)Nc3ccc(C(=O)O)cc32)cc1,28 nM,150 nM
CC(C)COC(=O)c1ccc2c(c1)/C(=C/Nc1ccc(S(N)(=O)=O)cc1)C(=O)N2 [GW416981X],3 nM,19 nM
C/C(Nc1ccc(S(N)(=O)=O)cc1)=C1/C(=O)Nc2ccccc21 [GW335962X],360 nM,2300 nM
NS(=O)(=O)c1ccc(NN=C2C(=O)Nc3ccc([N+](=O)[O-])cc32)cc1,15 nM,710 nM
Cc1cc(C)c2c(c1)/C(=C/Nc1ccc(S(N)(=O)=O)cc1)C(=O)N2,> 10000 nM,> 10000 nM
COc1cccc(OC)c1CNC(=O)c1ccc2c(c1)C(=NNc1ccc(S(N)(=O)=O)cc1)C(=O)N2,1.7 nM,9.3 nM

Structure (SMILES),IC50 [1],IC50 [2]
COC(=O)c1ccc2c(c1)/C(=C/Nc1ccc(S(N)(=O)=O)cc1)C(=O)N2,2.1 nM,12 nM
CN(C)S(=O)(=O)c1ccc(N/C=C2\C(=O)Nc3ccc4ncsc4c32)cc1,4.6 nM,50 nM
O=C1Nc2ccc3ncsc3c2/C1=C/Nc1ccc(S(=O)(=O)NCCOCCO)cc1,0.54 nM,12 nM
COc1ccc2c(c1Cl)C(=NNc1ccc(S(N)(=O)=O)cc1)C(=O)N2,54 nM,1700 nM
O=C1Nc2ccc3ncsc3c2/C1=C/Nc1ccc(S(=O)(=O)NCc2ccccc2)cc1,5.6 nM,52 nM
CC(C)c1cccc2c1C(=NNc1ccc(S(N)(=O)=O)cc1)C(=O)N2,2.5 nM,37 nM
CCc1cccc2c1C(=NNc1ccc(S(N)(=O)=O)cc1)C(=O)N2,7.9 nM,46 nM
CC(C)Cc1cccc2c1C(=NNc1ccc(S(N)(=O)=O)cc1)C(=O)N2,1.2 nM,19 nM
NS(=O)(=O)c1ccc(/N=N/c2c(O)[nH]c3cccc(I)c23)cc1,4.6 nM,110 nM
O=C1Nc2ccc3ncsc3c2/C1=C/Nc1ccc(S(=O)(=O)Nc2ccccc2)cc1,4.3 nM,41 nM
Cc1cc(Cl)cc2c1NC(=O)/C2=C\Nc1ccc(S(N)(=O)=O)cc1,> 10000 nM,> 10000 nM
CCc1ccc2c(c1)NC(=O)C2=NNc1ccc(S(N)(=O)=O)cc1,21 nM,660 nM
CC(=O)NS(=O)(=O)c1ccc(N/C=C2\C(=O)Nc3ccc4ncsc4c32)cc1,75 nM,910 nM
NS(=O)(=O)c1ccc(N/C=C2\C(=O)Nc3ccccc32)cc1,690 nM,3000 nM
CNS(=O)(=O)Cc1ccc(N/C=C2\C(=O)Nc3ccc4ncsc4c32)cc1,26 nM,170 nM
CN(C)c1ccc2c(c1)/C(=C/Nc1ccc(S(N)(=O)=O)cc1)C(=O)N2 [GW416469X],310 nM,2800 nM
NS(=O)(=O)c1ccc(NN=C2C(=O)Nc3cccc(Oc4ccccc4)c32)cc1,13 nM,290 nM
CS(=O)(=O)c1ccc(N/C=C2\C(=O)Nc3ccc4ncsc4c32)cc1,5.7 nM,39 nM
O=C1Nc2ccc3ncsc3c2/C1=C/Nc1ccc(CS(=O)(=O)NCCO)cc1,13 nM,200 nM
Cc1cccc2c1NC(=O)/C2=C\Nc1ccc(S(N)(=O)=O)cc1,> 10000 nM,> 10000 nM
NS(=O)(=O)c1ccc(NN=C2C(=O)Nc3ccc(O)cc32)cc1,10 nM,77 nM
Cc1cccc(C)c1NS(=O)(=O)c1ccc(N/C=C2\C(=O)Nc3ccc4ncsc4c32)cc1,281 nM,14000 nM
O=C1Nc2ccc3ncsc3c2/C1=C/Nc1ccc(S(=O)(=O)NCCc2c[nH]cn2)cc1,3.6 nM,38 nM
N=C(N)NS(=O)(=O)c1ccc(N/C=C2\C(=O)Nc3ccc4ncsc4c32)cc1,3.3 nM,45 nM
NS(=O)(=O)c1ccc(N/C=C2\C(=O)Nc3cccc(CO)c32)cc1,54 nM,1700 nM
Cc1c([N+](=O)[O-])ccc2c1C(=NNc1ccc(S(N)(=O)=O)cc1)C(=O)N2,4.6 nM,87 nM
NS(=O)(=O)c1ccc(N/N=C2\C(=O)Nc3ccc(Cl)cc32)cc1 [GW280670X],43 nM,300 nM

# Reference: ChEMBL document CHEMBL1134300, “Oxindole-based inhibitors of cyclin-dependent kinase 2 (CDK2): design, synthesis, enzymatic activities, and X-ray crystallographic analysis” (J Med Chem, 2001)
